The text below walks through data of patent US20220265817A1, “THERAPEUTIC COMPOSITIONS AND METHODS FOR TREATING HEPATITIS B” (priority 2017, published 2022).

The subject of assay [1] is D type HBV in primary human hepatocytes (HBeAg). The assay is described as follows: microbe, parasite or virus in culture. The class given is cell-based. The settings on record: Hepatitis B virus, Hepatocyte. The method, then: The mouse liver perfusion was applied to isolate PHHs. The isolated hepatocytes were further purified by Percoll. The cells were resuspended with culture media and seeded into the 96-well plates (6×10^4 cell/well) or 48-well plates (1.2×10^5 cell/well). The PHHs were infected with a D type HBV one day post seeding (day 1).
On day 2, the test compounds were diluted and added into the cell culture plates. The culture media containing the compounds were refreshed every other day. The cell culture supernatants were collected on day 8 for the HBV DNA and antigen determinations.
The compounds were tested at 7 concentrations, 3-fold dilution, in triplicate.
Two compounds were tested at 5×5 matrix, in triplicate plates.
HBsAg/HBeAg in the culture supernatants harvested on days 8 were measured by the HBsAg/HBeAg ELISA kit (Autobio) according to the manual. The samples were diluted with PBS to get the signal in the range of the standard curve. The inhibition rates were calculated with the formula below. The combination effect was analyzed by the MacSynergy software.
% Inh. HBeAg=[1-HBeAg quantity of sample/HBV quantity of DMSO control]×100.

The next assay concerns hepatitis B virus (HBV). Put plainly: Mouse model of HBV (pHBV1.3 hydrodynamic injection), serum HBV DNA quantitative PCR. The class given is in vivo, NOD.CB17-Prkdc^scid/J mice. The following applies: Example 3. The method, then:
On Day −7, 10 micrograms of the plasmid pHBV1.3 (as per Guidotti, L., et al., Journal of Virology, 1995, 69(10): 6158-6169) was administered to NOD.CB17-Prkdc^scid/J mice via hydrodynamic injection (HDI; rapid 1.6 mL injection into the tail vein). […] As a readout of the anti-HBV effect of various treatments, serum HBV DNA concentration in mice was measured from total extracted DNA using a quantitative PCR assay (primer/probe sequences from Tanaka, Y., et al., Journal of Medical Virology, 2004, 72: 223-229).
Animals were treated with Compound 3 as follows: Starting on Day 0, a 50 mg/kg or 100 mg/kg dosage of Compound 3 was administered orally to animals on a twice-daily frequency for a total of fourteen doses between Days 0 and 7. Compound 3 was dissolved in a co-solvent formulation for administration. Negative control animals were administered either the co-solvent formulation alone, or saline. Animals were treated with lipid nanoparticle (LNP)-encapsulated HBV-targeting siRNAs as follows: On Day 0, an amount of test article equivalent to 0.1 mg/kg siRNA was administered intravenously.
The effect of these treatments was determined by collecting blood on Days 0 (pre-treatment), 4 & 7 and analyzing it for serum HBV DNA content.
Animals were treated with Compound 3 as follows: Starting on Day 0, a 100 mg/kg dosage of Compound 3 was administered orally to animals on a twice-daily frequency for a total of fourteen doses between Days 0 and 7. Compound 3 was dissolved in a co-solvent formulation for administration. Negative control animals were administered either the co-solvent formulation alone, or saline. Animals were treated with ETV as follows: Starting on Day 0, either a 100 ng/kg or a 300 ng/kg dosage of ETV was administered orally to animals on a once-daily frequency for a total of seven doses between Days 0 and 6. ETV was dissolved in DMSO to 2 mg/mL and then diluted in saline for administration.
The effect of these treatments was determined by collecting blood on Days 0 (pre-treatment), 4 & 7 and analyzing it for serum HBV DNA content. Samples with Ct values below the lower limit of quantitation (LLOQ) were set to one-half LLOQ for calculation of group means.

Assay [2] deals with HBV rcDNA in AML12-HBV10 cells. The assay is described as follows: AML12-HBV10 cell culture system, rcDNA quantitation using bDNA assay, MacSynergy II. It is filed as cell-based, mouse hepatocyte cell line. The settings on record: Hepatitis B virus, AML12HBV10, in Mus musculus, 48 h, read-out: Inhibitor EC50. The method, then:
In vitro combination studies were conducted using the method of Prichard and Shipman (Prichard M N, and Shipman C Jr., Antiviral Research, 1990, 14 (4-5), 181-205; and Prichard M N, et. al., MacSynergy II). The AML12-HBV10 cell line was developed as described in Campagna et al. (Campagna et. al., J. Virology, 2013, 87(12), 6931-6942). It is a mouse hepatocyte cell line stably transfected with the HBV genome, and which can express HBV pregenomic RNA and support HBV rcDNA (relaxed circular DNA) synthesis in a tetracycline-regulated manner. AML12-HBV10 cells were plated in 96 well tissue-culture treated microtiter plates in DMEM/F12 medium supplemented with 10% fetal bovine serum +1% penicillin-streptomycin without tetracycline and incubated in a humidified incubator at 37° C. and 5% CO2 overnight. […] The two inhibitors were tested both singly as well as in combinations in a checkerboard fashion such that each concentration of inhibitor A was combined with each concentration of inhibitor B to determine their combination effects on inhibition of rcDNA production. Following a 48 hour-incubation, the level of rcDNA present in the inhibitor-treated wells was measured using a bDNA assay (Affymetrix) with HBV specific custom probe set and manufacturer's instructions. […] Concurrently, the effect of inhibitor combinations on cell viability was assessed using replicate plates that were used to determine the ATP content as a measure of cell viability using the cell-titer glo reagent (Promega) as per manufacturer's instructions.

SMILES strings stand for the structures. Read-outs that look alike come from different tables or passages of the source.

One may read the EC50 as the concentration giving half of the maximal effect.

On to `O=C(Nc1ccc(F)c(F)c1)c1cc(S(=O)(=O)NC2CCCC2)ccc1F` [Compound 22], for which the inhibition at 0.06173 µM in assay [1] (read-out: AVERAGE % INHIBITION HBeAg, COMPOUND 22 61.73 nM alone) was -16.8%. In addition, the inhibition at 0.18519 µM is -14.6% in assay [1] (read-out: AVERAGE % INHIBITION HBeAg, COMPOUND 22 185.19 nM alone) and -12.4% in assay [1] (read-out: AVERAGE % INHIBITION, TAF 0.00 nM, COMPOUND 22 185.19 nM). Besides, the inhibition at 0.55556 µM in assay [1] (read-out: AVERAGE % INHIBITION HBeAg, COMPOUND 22 555.56 nM alone) was -7.23%; in assay [1] (read-out: AVERAGE % INHIBITION, TAF 0.00 nM, COMPOUND 22 555.56 nM) it was -5.06%. The inhibition at 1.66667 µM in assay [1] (read-out: AVERAGE % INHIBITION HBeAg, COMPOUND 22 1666.67 nM alone) came to 8.5%. Further, the inhibition at 5 µM was 21.7% in assay [1] (read-out: AVERAGE % INHIBITION HBeAg, COMPOUND 22 5000.00 nM alone) and 29.7% in assay [1] (read-out: AVERAGE % INHIBITION, TAF 0.00 nM, COMPOUND 22 5000 nM). For the same compound, the inhibition at 61.73 µM in assay [1] (read-out: AVERAGE % INHIBITION, IFNα2a 0.00 IU/mL, COMPOUND 22 61.73 μM) is -7.2%. For the same compound, the inhibition at 185.19 µM in assay [1] (read-out: AVERAGE % INHIBITION, IFNα2a 0.00 IU/mL, COMPOUND 22 185.19 μM) is -9.57%. Also, the inhibition at 555.56 µM in assay [1] (read-out: AVERAGE % INHIBITION, IFNα2a 0.00 IU/mL, COMPOUND 22 555.56 μM) was -8.17%. In addition, the inhibition at 1666.67 µM in assay [1] (read-out: AVERAGE % INHIBITION, IFNα2a 0.00 IU/mL, COMPOUND 22 1666.67 μM) is 5.92%. Moreover, the inhibition at 5000 µM in assay [1] (read-out: AVERAGE % INHIBITION, IFNα2a 0.00 IU/mL, COMPOUND 22 5000.00 μM) is 20.9%. For the same compound, the inhibition at 0.061728 µM in assay [1] (read-out: AVERAGE % INHIBITION, TAF 0.00 nM, COMPOUND 22 61.728 nM) is -6.71%. In addition, the inhibition at 1.6667 µM in assay [1] (read-out: AVERAGE % INHIBITION, TAF 0.00 nM, COMPOUND 22 1666.7 nM) stood at 10.1%. In addition, the EC50 in assay [1] (read-out: Inhibitor B EC50 HBeAg) and in assay [1] (read-out: Inhibitor EC50) was 10.7 µM throughout.
Take `C=C1[C@H](CO)[C@@H](O)C[C@@H]1n1cnc2c(=O)[nH]c(N)nc21` [Entecavir]: the “Serum HBV DNA, % of individual pre-treatment baseline (Day 0)” value in the assay on hepatitis B virus (HBV) (Day 4, ETV 100 ng/kg oral once daily) came out at 21 ± 5%; in the assay with hepatitis B virus (HBV) (Day 4, ETV 300 ng/kg oral once daily), 1.6 ± 0.3%; in the assay on hepatitis B virus (HBV) (Day 7, ETV 100 ng/kg oral once daily), 3.5 ± 0.7%; in the assay with hepatitis B virus (HBV) (Day 7, ETV 300 ng/kg oral once daily), 0.88 ± 0.31%. Besides, the EC50 in assay [2] turned out to be 0.012 µM.
`CC(C)OC(=O)OCOP(=O)(CO[C@H](C)Cn1cnc2c(N)ncnc21)OCOC(=O)OC(C)C.O=C(O)/C=C/C(=O)O` [TDF, tenofovir disoproxil fumarate, reference compound]: the inhibition at 0.00012 µM is 7.02% in assay [1] (read-out: AVERAGE % INHIBITION HBeAg, TDF 0.12 nM alone) and 4.4% in assay [1] (read-out: AVERAGE % INHIBITION HBeAg, TDF 0.12 nM alone (compound 23 study)). The inhibition at 0.00037 µM worked out at 6.23% in assay [1] (read-out: AVERAGE % INHIBITION HBeAg, TDF 0.37 nM alone) and 6.74% in assay [1] (read-out: AVERAGE % INHIBITION HBeAg, TDF 0.37 nM alone (compound 23 study)). Besides, the inhibition at 0.00333 µM turned out to be 11.6% in assay [1] (read-out: AVERAGE % INHIBITION HBeAg, TDF 3.33 nM alone) and 9.05% in assay [1] (read-out: AVERAGE % INHIBITION HBeAg, TDF 3.33 nM alone (compound 23 study)). For the same compound, the inhibition at 0.01 µM in assay [1] (read-out: AVERAGE % INHIBITION HBeAg, TDF 10.00 nM alone) was found to be 6.07%; in assay [1] (read-out: AVERAGE % INHIBITION HBeAg, TDF 10.00 nM alone (compound 23 study)), 0.72%. For the same compound, the EC50 in assay [1] (read-out: Inhibitor A EC50) was over 0.1 µM.
